Experimental data taken from patent US20240189239A1, “PROCESS FOR CONTINUOUS HOT MELT GRANULATION OF LOW SOLUBLE PHARMACEUTICALS” (Merck Patent GmbH, priority 2021, published 2024).

Assay: Dissolution measurement of granules of Example 1 (paddle, 900 ml SGFsp, 37° C.)
Type: physicochemical
Details: paddle 75 rpm, 50 mg ITZ, up to 120 min
Protocol: For measuring the dissolution, granules as obtained in Example 1 were used directly without further processing. 3 samples per temperature setup were used. 500 mg 10% ITZ granulate were weighted (Mettler Toledo Delta Range XP105) which equals 50 mg ITZ API.
Dissolution was performed using a Sotax AT7 smart with an online Photometer Specord 200+ from Analytik Jena. As a medium 900 ml SGF.sp (20 g NaCl, 800 ml 0.1 M HCl ad 10.0 L VE-water) at 37° C.±0.5 was used. The following settings were used: Rotation speed 75 rpm; Paddle method; Pre-filter: Glass Mircofiber Filters GE Whatmann GF/D Diameter 25 mm, 5 mm HELMA flow-through cuvette, Sampling Points: 5,20,35,50,60,120 Min.
The granulation with polyvinyl alcohol at a temperature between 140° C. to 170° C. increases the solubility of the compound (lines 2 to 6). At 175° C. the solubility suddenly increases. With higher temperature solubility is further enhanced. An immediate release can be observed for temperatures of 180° C. to 190° C. (lines 8 to 10). With a further temperature increase above the melting temperature of PCA (line 11; 200° C.) the drug release rates are delayed.

solubility / drug release of itraconazole in the release medium (FIG. 3): very low solubility
Compound: CCC(C)n1ncn(-c2ccc(N3CCN(c4ccc(OCC5COC(Cn6cncn6)(c6ccc(Cl)cc6Cl)O5)cc4)CC3)cc2)c1=O (stereo not shown) [crystalline itraconazole, itraconazole]
